Experiments:
Type in all cases: binding
PTGER4 = target: T1, PTGER4 (Homo sapiens, UniProt P35408); assay: NanoBRET screen HiBiT-PTGER4 in HEK293
T1 construct: purchased Promega (in-house HiBiT-GPCR construct library, NanoBRET)
Protocol: (§1) Each tracer candidate was screened across the entire library of HiBiT-GPCR constructs using NanoBRET as the detection modality. As depicted in Figure 4A, the specificity of interactions was evaluated through decrease in BRET due to competitive displacement of a bound tracer by excess parental compound. Each tracer was analyzed for binding to each HiBiT-GPCR fusion in the absence and in the presence of competing parental compound. Briefly, HEK293 cells were transfected with HiBiT-GPCR constructs diluted into promoterless DNA to reduce expression and maximize translocation to the cell surface. Each tracer candidate was then screened at concentrations of 1 μM and 0.1 μM across cells expressing these fusions. Cells were treated for 1.5 h with tracer either alone or in the presence of 20 μM competing parental compound (i.e., control). BRET was measured upon addition of purified LgBiT and subsequent complementation with HiBiT genetically fused to a GPCR. The specificity of interactions was assessed through a decrease in BRET signal due to competitive displacement of the bound tracer. To further gauge the robustness of these interactions, the fold response over the control (i.e., BRETtracer/BRETcontrol) was calculated. We chose a 1.5-fold response, which translates to ≥7-fold signal over noise as the minimal threshold required to score an interaction as positive. […]. Below we highlight the screening results obtained for our exemplary fluorescent tracers based on Clozapine, Amitriptyline and AZD1283.
(§2) HiBiT-GPCR DNA constructs were diluted in 10 mM Tris pH 8 to a final concentration of 0.01 μg/μL, arrayed in 96-well plates and stored at −20 °C. For transfection, HEK293 cells were suspended in Opti-MEM (without phenol red) supplemented with 2% fetal bovine serum (Seradigm) and 100 units/mL penicillin–streptomycin (Gibco) at a final concentration of 220,000 cells/mL and dispensed into white 96-well plates at 90 μL/well. Subsequent transfections and screens were carried using an Agilent Bravo Automated Liquid Handling Platform. First, the 96-well HiBiT DNA arrays were diluted 25-fold in Opti-MEM (without serum or phenol red) to a final concentration of 0.0004 μg/μL and 20 μL of the diluted DNAs were transferred into new 96-well plates. Next, promoterless carrier DNA (1 μg/μL) was diluted 25-fold (0.04 μg/μL) and then dispensed into the diluted arrays at 20 μL/well. Following brief mixing, Viafect transfection reagent (Promega) diluted 16-fold into Opti-MEM was dispensed into the plates at 40 μL/well. After mixing by pipetting, plates were incubated for 10 min on the pipetting station deck. The DNA-transfection reagent complexes were then added to plates containing cells. To facilitate the screen, 10 μL of DNA-transfection reagent complexes were added in duplicates to the top 4 and bottom 4 rows, resulting in two identical 48-well arrays per plate. Plates with transfected cells were incubated for 18–20 h at 37 °C/5% CO2. A screen of each tracer across the entire library using two different concentrations requires duplicate plates of transfected cells. Depending on the number of tracers being screened, transfections can be scaled up using the same ratios. The next day, for each tracer, four 20× screening solutions in tracer dilution buffer (Promega) were prepared: two duplicates at final concentration of 20 μM and two duplicates at a final concentration of 2 μM. A competing unmodified compound was added to one of each duplicate at a final concentration of 400 μM. The four resulting solutions were diluted 4-fold in Opti-MEM without serum or phenol red to generate 5× solutions (5 µM and 0.5 µM tracer +/− 100 μM competing compound). To screen the library, a BioTek MultiFlo FX liquid dispenser was used to dispense 22.5 µL of tracer solution to the top 4 rows and 22.5 µL tracer + competing compound solution to the 4 bottom rows. Plates were briefly mixed on an orbital shaker and incubated for 1.5 h at room temperature. […]

FPR2 = target: T2, FPR2 (Homo sapiens, UniProt P25090); assay: NanoBRET screen HiBiT-FPR2 in HEK293
T2 construct: purchased Promega (in-house HiBiT-GPCR construct library, NanoBRET)
T2 sequence (P25090 1-351): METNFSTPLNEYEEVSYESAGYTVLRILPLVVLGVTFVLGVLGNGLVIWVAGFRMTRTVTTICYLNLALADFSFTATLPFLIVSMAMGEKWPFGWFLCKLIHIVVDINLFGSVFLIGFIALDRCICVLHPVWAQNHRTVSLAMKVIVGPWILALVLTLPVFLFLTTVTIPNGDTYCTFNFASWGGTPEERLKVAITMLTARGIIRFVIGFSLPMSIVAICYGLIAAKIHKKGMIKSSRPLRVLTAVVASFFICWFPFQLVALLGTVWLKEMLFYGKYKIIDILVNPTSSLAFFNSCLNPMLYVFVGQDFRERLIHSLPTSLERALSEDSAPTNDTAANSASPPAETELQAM
Protocol: as §1, §2

NTSR1 = target: T3, NTSR1 (Homo sapiens, UniProt P30989); assay: NanoBRET screen HiBiT-NTSR1 in HEK293
T3 construct: purchased Promega (in-house HiBiT-GPCR construct library, NanoBRET)
Protocol: as §1, §2

PTGDR = target: T4, PTGDR (Homo sapiens, UniProt Q13258); assay: NanoBRET screen HiBiT-PTGDR in HEK293
T4 construct: purchased Promega (in-house HiBiT-GPCR construct library, NanoBRET)
T4 sequence (Q13258 1-359): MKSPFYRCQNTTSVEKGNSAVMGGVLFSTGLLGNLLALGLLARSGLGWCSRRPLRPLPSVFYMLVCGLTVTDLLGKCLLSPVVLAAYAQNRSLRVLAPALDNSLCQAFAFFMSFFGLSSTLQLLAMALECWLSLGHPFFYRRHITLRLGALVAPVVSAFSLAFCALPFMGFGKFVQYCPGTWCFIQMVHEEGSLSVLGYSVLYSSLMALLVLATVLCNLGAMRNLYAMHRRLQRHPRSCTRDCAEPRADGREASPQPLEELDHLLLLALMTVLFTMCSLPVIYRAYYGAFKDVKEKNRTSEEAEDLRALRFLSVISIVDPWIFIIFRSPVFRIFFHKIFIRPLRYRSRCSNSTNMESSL
Protocol: as §1, §2

BDKRB1 = target: T5, BDKRB1 (Homo sapiens, UniProt P46663); assay: NanoBRET screen HiBiT-BDKRB1 in HEK293
T5 construct: purchased Promega (in-house HiBiT-GPCR construct library, NanoBRET)
T5 sequence (P46663 1-353): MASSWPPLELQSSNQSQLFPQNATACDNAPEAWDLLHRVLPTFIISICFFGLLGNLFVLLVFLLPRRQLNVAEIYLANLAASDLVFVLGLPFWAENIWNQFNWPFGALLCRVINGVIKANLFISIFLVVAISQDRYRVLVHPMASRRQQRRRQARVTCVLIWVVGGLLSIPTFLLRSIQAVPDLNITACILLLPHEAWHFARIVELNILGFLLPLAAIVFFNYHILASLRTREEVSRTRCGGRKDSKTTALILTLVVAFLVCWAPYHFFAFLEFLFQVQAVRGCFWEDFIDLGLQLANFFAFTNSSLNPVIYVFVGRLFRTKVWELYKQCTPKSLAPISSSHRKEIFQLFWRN
Protocol: as §1, §2

T3 sequence (P30989 whole entry): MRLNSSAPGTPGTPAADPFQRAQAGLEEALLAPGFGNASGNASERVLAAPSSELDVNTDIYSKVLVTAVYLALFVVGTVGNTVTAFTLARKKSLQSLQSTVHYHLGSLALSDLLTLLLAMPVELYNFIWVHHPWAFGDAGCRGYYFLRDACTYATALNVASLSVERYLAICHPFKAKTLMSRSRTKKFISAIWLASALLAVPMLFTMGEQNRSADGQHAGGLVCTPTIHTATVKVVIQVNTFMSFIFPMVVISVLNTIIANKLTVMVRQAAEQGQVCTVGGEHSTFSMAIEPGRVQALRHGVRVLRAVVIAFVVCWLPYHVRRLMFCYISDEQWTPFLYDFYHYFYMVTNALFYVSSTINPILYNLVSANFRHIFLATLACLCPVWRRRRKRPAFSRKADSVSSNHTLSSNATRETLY
T1 sequence (P35408 whole entry): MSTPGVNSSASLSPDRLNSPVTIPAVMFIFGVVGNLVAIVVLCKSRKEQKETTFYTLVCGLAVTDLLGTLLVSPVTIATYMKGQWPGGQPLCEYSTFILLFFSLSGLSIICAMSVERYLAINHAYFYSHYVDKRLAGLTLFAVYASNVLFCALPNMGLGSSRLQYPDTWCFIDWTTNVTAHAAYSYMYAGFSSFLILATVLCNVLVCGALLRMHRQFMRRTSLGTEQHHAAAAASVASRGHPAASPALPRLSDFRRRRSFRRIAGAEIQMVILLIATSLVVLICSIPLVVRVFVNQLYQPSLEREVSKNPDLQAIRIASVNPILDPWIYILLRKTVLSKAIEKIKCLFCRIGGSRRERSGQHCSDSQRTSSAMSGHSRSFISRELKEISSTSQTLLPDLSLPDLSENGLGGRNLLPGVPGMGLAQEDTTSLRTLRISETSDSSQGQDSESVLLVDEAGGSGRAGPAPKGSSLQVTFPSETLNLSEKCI

| Structure (SMILES) | NanoBRET Fold Response (PTGER4; PTGER4, tracer 0.1μM) | NanoBRET Fold Response (PTGER4; PTGER4, tracer 1μM) | NanoBRET Fold Response (FPR2; FPR2, tracer 0.1μM) | NanoBRET Fold Response (FPR2; FPR2, tracer 1μM) | NanoBRET Fold Response (NTSR1; NTSR1, tracer 0.1μM) | NanoBRET Fold Response (NTSR1; NTSR1, tracer 1μM) | NanoBRET Fold Response (PTGDR; PTGDR, tracer 0.1μM) | NanoBRET Fold Response (PTGDR; PTGDR, tracer 1μM) | NanoBRET Fold Response (BDKRB1; BDKRB1, tracer 0.1μM) | NanoBRET Fold Response (BDKRB1; BDKRB1, tracer 1μM) | also measured |
| --- | --- | --- | --- | --- | --- | --- | --- | --- | --- | --- | --- |
| O=C(CCc1ccc2n1[B-](F)(F)[N+]1=C(c3ccc[nH]3)C=CC1=C2)NCc1ccc(C(=O)NCCOCCC(=O)N[C@@H]2CC[C@@]3(O)[C@H]4Cc5ccc(O)c6c5[C@@]3(CCN4CC3CC3)[C@H]2O6)cc1 [Naltrexone-3-NB590] | 0.94 | 1.01 | 0.87 | 0.66 | 1.07 | 0.93 | 0.85 | 0.97 | 1.18 | 1.03 | – |
| CCCn1c(=O)c2[nH]c(-c3ccc(OCC(=O)NCCNC(=O)CCOCCNC(=O)c4ccc(CNC(=O)CCc5ccc6n5[B-](F)(F)[N+]5=C(c7ccc[nH]7)C=CC5=C6)cc4)cc3)nc2n(CCC)c1=O [XAC-3-NB590] | 1.15 | 1.01 | 0.89 | 0.95 | 0.98 | 1.02 | 1.02 | 1.06 | 0.91 | 0.94 | – |
| CC(C)N(CC[C@H](c1ccccc1)c1cc(CCNC(=O)c2ccc(CNC(=O)CCc3ccc4n3[B-](F)(F)[N+]3=C(c5ccc[nH]5)C=CC3=C4)cc2)ccc1O)C(C)C [Tolterodine-BZ-NB590] | 1.02 | 1.04 | 0.95 | 0.95 | 1.02 | 1.03 | 1.03 | 0.98 | 1.02 | 0.85 | – |
| COc1ccc2[nH]c(-c3ccc(CNC(=O)CCOCCOCCOCCOCCNC(=O)CCc4ccc5n4[B-](F)(F)[N+]4=C(c6ccc[nH]6)C=CC4=C5)cc3)c(CCNC(C)=O)c2n1 [AzomelatoninICO9-2-NB590] | – | – | – | – | – | – | – | – | – | – | NanoBRET Fold Response (PTGER4; 0.1μM tracer): 0.97; NanoBRET Fold Response (PTGER4; 1μM tracer): 0.97; NanoBRET Fold Response (FPR2; 0.1μM tracer): 0.74; NanoBRET Fold Response (FPR2; 1μM tracer): 1.09; NanoBRET Fold Response (NTSR1; 0.1μM tracer): 0.90; NanoBRET Fold Response (NTSR1; 1μM tracer): 0.78; NanoBRET Fold Response (PTGDR; 0.1μM tracer): 1.06; NanoBRET Fold Response (PTGDR; 1μM tracer): 0.88; NanoBRET Fold Response (BDKRB1; 0.1μM tracer): 1.31; NanoBRET Fold Response (BDKRB1; 1μM tracer): 1.20 |
| CN1CCN(C2=Nc3cc(Cl)ccc3N(CC(=O)NCCOCCOCCOCCOCCNC(=O)CCc3ccc4n3[B-](F)(F)[N+]3=C(c5ccc[nH]5)C=CC3=C4)c3ccccc32)CC1 [Clozapine-c-2-NB590] | – | – | – | – | – | – | – | – | – | – | NanoBRET Fold Response (PTGER4; PTGER4, 0.1μM tracer): 1.00; NanoBRET Fold Response (PTGER4; PTGER4, 1μM tracer): 1.05; NanoBRET Fold Response (FPR2; FPR2, 0.1μM tracer): 1.00; NanoBRET Fold Response (FPR2; FPR2, 1μM tracer): 0.89; NanoBRET Fold Response (NTSR1; NTSR1, 0.1μM tracer): 1.02; NanoBRET Fold Response (NTSR1; NTSR1, 1μM tracer): 1.01; NanoBRET Fold Response (PTGDR; PTGDR, 0.1μM tracer): 1.04; NanoBRET Fold Response (PTGDR; PTGDR, 1μM tracer): 1.07; NanoBRET Fold Response (BDKRB1; BDKRB1, 0.1μM tracer): 1.06; NanoBRET Fold Response (BDKRB1; BDKRB1, 1μM tracer): 1.07 |
| COc1ccccc1N1CCN(CCCCN2C(=O)c3ccc(CNC(=O)CCOCCNC(=O)c4ccc(CNC(=O)CCc5ccc6n5[B-](F)(F)[N+]5=C(c7ccc[nH]7)C=CC5=C6)cc4)cc3C2=O)CC1 [NAN-190-3-NB590] | 1.00 | 0.97 | 1.35 | 0.77 | 0.90 | 0.99 | 0.96 | 0.98 | 0.84 | 1.05 | – |
| Cc1nc2n(c(=O)c1CCN1CCC(c3noc4cc(F)ccc34)CC1)CCCC2OC(=O)NCCOCCOCCOCCOCCNC(=O)CCc1ccc2n1[B-](F)(F)[N+]1=C(c3ccc[nH]3)C=CC1=C2 (centres unmarked) [Risperidone-2-NB590] | 1.00 | 1.04 | 0.94 | 0.95 | 1.00 | 0.98 | 1.01 | 0.93 | 1.28 | 0.77 | – |
| O=C(CCOCCOCCOCCOCCNC(=O)CCc1ccc2n1[B-](F)(F)[N+]1=C(c3ccc[nH]3)C=CC1=C2)NCCCN1CCN(C2=Nc3ccccc3Oc3ccc(Cl)cc32)CC1 [Loxapine-a-2-NB590] | 0.97 | 1.07 | 0.81 | 0.85 | 0.99 | 1.08 | 0.93 | 0.98 | 1.05 | 1.27 | – |
| CN(C)CCC=C1c2ccccc2CCc2ccc(C(=O)NCCNC(=O)CCOCCOCCOCCOCCNC(=O)CCc3ccc4n3[B-](F)(F)[N+]3=C(c5ccc[nH]5)C=CC3=C4)cc21 [Amitriptyline-a-2-NB590] | – | – | – | – | – | – | – | – | – | – | NanoBRET Fold Response (FPR2; tracer at 0.1μM): 0.96; NanoBRET Fold Response (FPR2; tracer at 1μM): 1.05; NanoBRET Fold Response (NTSR1; tracer at 0.1μM): 1.05; NanoBRET Fold Response (NTSR1; tracer at 1μM): 1.00; NanoBRET Fold Response (BDKRB1; tracer at 0.1μM): 1.13; NanoBRET Fold Response (BDKRB1; tracer at 1μM): 1.04 |

From publication PMC8151276, “An Integrated Approach toward NanoBRET Tracers for Analysis of GPCR Ligand Engagement” (Molecules, 2021)
